Values after ≈ are worked out from the molar mass of the structure shown. Active and inactive are the calls of the source. The calls are words filed in the database; no cut-off is given here.
How the values were obtained:
Enterococcus faecium = test: Antibacterial activity against vancomycin- resistant Enterococcus faecium by CLSI M100-S18 method; assay type: functional
Listeria monocytogenes = test: Antibacterial activity against Listeria monocytogenes by CLSI M100-S18 method; assay type: functional
Staphylococcus aureus [1] = test: Antibacterial activity against ciprofloxacin-susceptible and methicillin-resistant Staphylococcus aureus by CLSI M100-S18 method; assay type: functional
Staphylococcus aureus [2] = test: Antibacterial activity against non-ciprofloxacin-susceptible and methicillin-susceptible Staphylococcus aureus by CLSI M100-S18 method; assay type: functional
[3] = test system: Staphylococcus epidermidis; test: Antibacterial activity against ciprofloxacin-susceptible and methicillin-resistant Staphylococcus epidermidis by CLSI M100-S18 method; assay type: functional
[4] = test system: Staphylococcus haemolyticus; test: Antibacterial activity against Staphylococcus haemolyticus by CLSI M100-S18 method; assay type: functional
Staphylococcus hominis [5] = test: Antibacterial activity against Staphylococcus hominis by CLSI M100-S18 method; assay type: functional
Staphylococcus warneri = test: Antibacterial activity against Staphylococcus warneri by CLSI M100-S18 method; assay type: functional
Streptococcus agalactiae = test: Antibacterial activity against Streptococcus agalactiae by CLSI M100-S18 method; assay type: functional
Streptococcus sp. = test: Antibacterial activity against Lancefield Streptococcus sp. group F by CLSI M100-S18 method; assay type: functional
[6] = Antibacterial activity against Lancefield Streptococcus sp. 'group G' by CLSI M100-S18 method; assay type: functional
Streptococcus pneumoniae [7] = test: Antibacterial activity against non-levofloxacin susceptible Streptococcus pneumoniae by CLSI M100-S18 method; assay type: functional
Streptococcus equinus = test: Antibacterial activity against Streptococcus bovis by CLSI M100-S18 method; assay type: functional
[8] = test system: Streptococcus constellatus; test: Antibacterial activity against Streptococcus constellatus by CLSI M100-S18 method; assay type: functional
[9] = test system: Streptococcus intermedius; test: Antibacterial activity against Streptococcus intermedius by CLSI M100-S18 method; assay type: functional
Streptococcus salivarius = test: Antibacterial activity against Streptococcus salivarius by CLSI M100-S18 method; assay type: functional
Streptococcus sanguinis = test: Antibacterial activity against Streptococcus sanguinis by CLSI M100-S18 method; assay type: functional
[10] = test system: Acinetobacter calcoaceticus; test: Antibacterial activity against Acinetobacter calcoaceticus by CLSI M7-A7 method; assay type: functional
Acinetobacter lwoffii = test: Antibacterial activity against Acinetobacter lwoffii by CLSI M7-A7 method; assay type: functional
Citrobacter koseri = test: Antibacterial activity against Citrobacter koseri by CLSI M7-A7 method; assay type: functional
Haemophilus influenzae [11] = test: Antibacterial activity against ciprofloxacin-susceptible Haemophilus influenzae by CLSI M7-A7 method; assay type: functional
Haemophilus influenzae [12] = test: Antibacterial activity against non-ciprofloxacin-susceptible Haemophilus influenzae by CLSI M7-A7 method; assay type: functional
Klebsiella oxytoca = test: Antibacterial activity against Klebsiella oxytoca by CLSI M7-A7 method; assay type: functional
Klebsiella pneumoniae [13] = test: Antibacterial activity against Klebsiella pneumoniae by CLSI M7-A7 method; assay type: functional
Moraxella catarrhalis = test: Antibacterial activity against Moraxella catarrhalis by CLSI M7-A7 method; assay type: functional
Morganella morganii = test: Antibacterial activity against Morganella morganii by CLSI M7-A7 method; assay type: functional
Proteus mirabilis = test: Antibacterial activity against Proteus mirabilis by CLSI M7-A7 method; assay type: functional
Proteus vulgaris = test: Antibacterial activity against Proteus vulgaris by CLSI M7-A7 method; assay type: functional
Pseudomonas aeruginosa [14] = test: Antibacterial activity against ciprofloxacin-susceptible Pseudomonas aeruginosa by CLSI M7-A7 method; assay type: functional
Pseudomonas aeruginosa [15] = test: Antibacterial activity against non-ciprofloxacin-susceptible Pseudomonas aeruginosa by CLSI M7-A7 method; assay type: functional
Serratia marcescens [16] = test: Antibacterial activity against Serratia marcescens by CLSI M7-A7 method; assay type: functional
[17] = test system: Stenotrophomonas maltophilia; test: Antibacterial activity against non-levofloxacin susceptible Stenotrophomonas maltophilia by CLSI M7-A7 method; assay type: functional
Staphylococcus aureus [18] = test: Antibacterial activity against ciprofloxacin-susceptible and methicillin-resistant Staphylococcus aureus assessed as percent susceptible isolates by CLSI M100-S18 method; assay type: functional
[19] = test system: Staphylococcus epidermidis; test: Antibacterial activity against non-ciprofloxacin-susceptible and methicillin-susceptible Staphylococcus epidermidis assessed as percent susceptible isolates by CLSI M100-S18 method; assay type: functional
[20] = test system: Staphylococcus haemolyticus; test: Antibacterial activity against Staphylococcus haemolyticus assessed as percent susceptible isolates by CLSI M100-S18 method; assay type: functional
Staphylococcus hominis [21] = test: Antibacterial activity against Staphylococcus hominis assessed as percent susceptible isolates by CLSI M100-S18 method; assay type: functional
[22] = test system: Staphylococcus lugdunensis; test: Antibacterial activity against Staphylococcus lugdunensis assessed as percent susceptible isolates by CLSI M100-S18 method; assay type: functional
[23] = test system: Staphylococcus saprophyticus; test: Antibacterial activity against Staphylococcus saprophyticus assessed as percent susceptible isolates by CLSI M100-S18 method; assay type: functional
Streptococcus pneumoniae [24] = test: Antibacterial activity against non-levofloxacin susceptible Streptococcus pneumoniae assessed as percent susceptible isolates by CLSI M100-S18 method; assay type: functional
Citrobacter freundii = test: Antibacterial activity against Citrobacter freundii assessed as percent susceptible isolates by CLSI M7-A7 method; assay type: functional
Enterobacter cloacae = test: Antibacterial activity against Enterobacter cloacae assessed as percent susceptible isolates by CLSI M7-A7 method; assay type: functional
Haemophilus influenzae [25] = test: Antibacterial activity against non-ciprofloxacin-susceptible Haemophilus influenzae assessed as percent susceptible isolates by CLSI M7-A7 method; assay type: functional
Klebsiella pneumoniae [26] = test: Antibacterial activity against Klebsiella pneumoniae assessed as percent susceptible isolates by CLSI M7-A7 method; assay type: functional
Serratia marcescens [27] = test: Antibacterial activity against levofloxacin susceptible Serratia marcescens assessed as percent susceptible isolates by CLSI M7-A7 method; assay type: functional
[28] = test system: Stenotrophomonas maltophilia; test: Antibacterial activity against levofloxacin-susceptible Stenotrophomonas maltophilia by CLSI M7-A7 method; assay type: functional
[29] = test system: Staphylococcus epidermidis
[30] = test system: Staphylococcus epidermidis; remark: listed apart in the source

**Q.** For `NC[C@H]1O[C@H](O[C@H]2[C@H](O)[C@@H](O[C@H]3O[C@H](CO)[C@@H](O)[C@H](N)[C@H]3O)[C@H](N)C[C@@H]2N)[C@H](N)C[C@@H]1O` [TOBRAMYCIN], which MIC50 (Enterococcus faecium) is on record?
**A.** > 128 mg/L

**Q.** And the MIC90 (Enterococcus faecium)?
**A.** > 128 mg/L

**Q.** And the MIC50 (Listeria monocytogenes)?
**A.** 0.12 mg/L (≈ 0.257 µM)

**Q.** And the MIC90 (Listeria monocytogenes)?
**A.** 0.12 mg/L (≈ 0.257 µM)

**Q.** And the MIC50 (Staphylococcus aureus [1])?
**A.** 0.5 mg/L (≈ 1.07 µM)

**Q.** What about the MIC90 (Staphylococcus aureus [1]) of the same compound?
**A.** 1 mg/L (≈ 2.14 µM)

**Q.** And the MIC50 (Staphylococcus aureus [2])?
**A.** 1 mg/L (≈ 2.14 µM)

**Q.** And the MIC90 (Staphylococcus aureus [2])?
**A.** > 32 mg/L

**Q.** What about the MIC50 [3] of the same compound?
**A.** 0.03 mg/L (≈ 0.0642 µM)

**Q.** And the MIC50 [4]?
**A.** 2 mg/L (≈ 4.28 µM)

**Q.** What about the MIC90 [4] of the same compound?
**A.** 32 mg/L (≈ 68.4 µM)

**Q.** And the MIC50 (Staphylococcus hominis [5])?
**A.** 16 mg/L (≈ 34.2 µM)

**Q.** What about the MIC90 (Staphylococcus hominis [5]) of the same compound?
**A.** 32 mg/L (≈ 68.4 µM)

**Q.** What about the MIC50 (Staphylococcus warneri) of the same compound?
**A.** 0.06 mg/L (≈ 0.128 µM)

**Q.** And the MIC90 (Staphylococcus warneri)?
**A.** 8 mg/L (≈ 17.1 µM)

**Q.** And the MIC50 (Streptococcus agalactiae)?
**A.** 0.06 mg/L (≈ 0.128 µM)

**Q.** What about the MIC90 (Streptococcus agalactiae) of the same compound?
**A.** > 8 mg/L

**Q.** And the MIC50 (Streptococcus sp.)?
**A.** 0.06 mg/L (≈ 0.128 µM)

**Q.** What about the MIC90 (Streptococcus sp.) of the same compound?
**A.** > 8 mg/L

**Q.** What about the MIC50 [6] of the same compound?
**A.** 0.06 mg/L (≈ 0.128 µM)

**Q.** And the MIC90 [6]?
**A.** > 8 mg/L

**Q.** And the MIC50 (Streptococcus pneumoniae [7])?
**A.** 8 mg/L (≈ 17.1 µM)

**Q.** And the MIC90 (Streptococcus pneumoniae [7])?
**A.** 16 mg/L (≈ 34.2 µM)

**Q.** And the MIC50 (Streptococcus equinus)?
**A.** 0.06 mg/L (≈ 0.128 µM)

**Q.** What about the MIC90 (Streptococcus equinus) of the same compound?
**A.** > 8 mg/L

**Q.** And the MIC50 [8]?
**A.** 0.06 mg/L (≈ 0.128 µM)

**Q.** What about the MIC90 [8] of the same compound?
**A.** > 8 mg/L

**Q.** And the MIC50 [9]?
**A.** 0.06 mg/L (≈ 0.128 µM)

**Q.** And the MIC90 [9]?
**A.** > 8 mg/L

**Q.** And the MIC50 (Streptococcus salivarius)?
**A.** 0.06 mg/L (≈ 0.128 µM)

**Q.** What about the MIC90 (Streptococcus salivarius) of the same compound?
**A.** > 8 mg/L

**Q.** What about the MIC50 (Streptococcus sanguinis) of the same compound?
**A.** 0.06 mg/L (≈ 0.128 µM)

**Q.** And the MIC90 (Streptococcus sanguinis)?
**A.** > 8 mg/L

**Q.** What about the MIC50 [10] of the same compound?
**A.** 0.25 mg/L (≈ 0.535 µM)

**Q.** And the MIC90 [10]?
**A.** 1 mg/L (≈ 2.14 µM)

**Q.** And the MIC50 (Acinetobacter lwoffii)?
**A.** 0.06 mg/L (≈ 0.128 µM)

**Q.** And the MIC90 (Acinetobacter lwoffii)?
**A.** 0.5 mg/L (≈ 1.07 µM)

**Q.** And the MIC50 (Citrobacter koseri)?
**A.** 0.5 mg/L (≈ 1.07 µM)

**Q.** What about the MIC90 (Citrobacter koseri) of the same compound?
**A.** 1 mg/L (≈ 2.14 µM)

**Q.** What about the MIC50 (Haemophilus influenzae [11]) of the same compound?
**A.** 2 mg/L (≈ 4.28 µM)

**Q.** What about the MIC90 (Haemophilus influenzae [11]) of the same compound?
**A.** 8 mg/L (≈ 17.1 µM)

**Q.** And the MIC50 (Haemophilus influenzae [12])?
**A.** 4 mg/L (≈ 8.56 µM)

**Q.** And the MIC90 (Haemophilus influenzae [12])?
**A.** 8 mg/L (≈ 17.1 µM)

**Q.** And the MIC50 (Klebsiella oxytoca)?
**A.** 0.5 mg/L (≈ 1.07 µM)

**Q.** What about the MIC90 (Klebsiella oxytoca) of the same compound?
**A.** 1 mg/L (≈ 2.14 µM)

**Q.** What about the MIC50 (Klebsiella pneumoniae [13]) of the same compound?
**A.** 0.25 mg/L (≈ 0.535 µM)

**Q.** What about the MIC90 (Klebsiella pneumoniae [13]) of the same compound?
**A.** 1 mg/L (≈ 2.14 µM)

**Q.** And the MIC50 (Moraxella catarrhalis)?
**A.** 0.03 mg/L (≈ 0.0642 µM)

**Q.** And the MIC90 (Moraxella catarrhalis)?
**A.** 0.03 mg/L (≈ 0.0642 µM)

**Q.** And the MIC50 (Morganella morganii)?
**A.** 1 mg/L (≈ 2.14 µM)

**Q.** And the MIC90 (Morganella morganii)?
**A.** 4 mg/L (≈ 8.56 µM)

**Q.** What about the MIC50 (Proteus mirabilis) of the same compound?
**A.** 1 mg/L (≈ 2.14 µM)

**Q.** And the MIC90 (Proteus mirabilis)?
**A.** 4 mg/L (≈ 8.56 µM)

**Q.** And the MIC50 (Proteus vulgaris)?
**A.** 1 mg/L (≈ 2.14 µM)

**Q.** And the MIC90 (Proteus vulgaris)?
**A.** 4 mg/L (≈ 8.56 µM)

**Q.** What about the MIC50 (Pseudomonas aeruginosa [14]) of the same compound?
**A.** 2 mg/L (≈ 4.28 µM)

**Q.** And the MIC90 (Pseudomonas aeruginosa [14])?
**A.** 2 mg/L (≈ 4.28 µM)

**Q.** What about the MIC50 (Pseudomonas aeruginosa [15]) of the same compound?
**A.** 8 mg/L (≈ 17.1 µM)

**Q.** And the MIC90 (Pseudomonas aeruginosa [15])?
**A.** > 8 mg/L

**Q.** And the MIC50 (Serratia marcescens [16])?
**A.** 0.5 mg/L (≈ 1.07 µM)

**Q.** And the MIC90 (Serratia marcescens [16])?
**A.** 1 mg/L (≈ 2.14 µM)

**Q.** What about the MIC [17] of the same compound?
**A.** > 8 mg/L

**Q.** And the Activity (Staphylococcus aureus [18])?
**A.** 68.4%

**Q.** And the Activity [19]?
**A.** 16.7%

**Q.** What about the Activity [20] of the same compound?
**A.** 26.7%

**Q.** And the Activity (Staphylococcus hominis [21])?
**A.** 16%

**Q.** And the Activity [22]?
**A.** 46.7%

**Q.** And the Activity [23]?
**A.** 54.5%

**Q.** What about the Activity (Streptococcus pneumoniae [24]) of the same compound?
**A.** inactive

**Q.** And the Activity (Citrobacter freundii)?
**A.** 99%

**Q.** What about the Activity (Enterobacter cloacae) of the same compound?
**A.** 100%

**Q.** And the Activity (Haemophilus influenzae [25])?
**A.** inactive

**Q.** And the Activity (Klebsiella pneumoniae [26])?
**A.** 100%

**Q.** And the Activity (Serratia marcescens [27])?
**A.** 100%

**Q.** And the MIC [28]?
**A.** 2 mg/L (≈ 4.28 µM)

**Q.** What about the MIC90 [29] of the same compound?
**A.** inactive

**Q.** And the MIC90 [30]?
**A.** inactive

— ChEMBL document CHEMBL1649565, “Besifloxacin, a novel fluoroquinolone, has broad-spectrum in vitro activity against aerobic and anaerobic bacteria” (Antimicrob Agents Chemother, 2009)
